According to PubChem BioAssay (NCI):
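Cells were grown in 96-well plates and exposed to each compound for 48 hours at five concentrations; endpoints were interpolated linearly between bracketing concentrations, or set to the highest concentration if not reached. At the TGI there is no net growth.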

Experiments:
Test in all cases: inhibition of tumour cell growth, NCI panel, 48 h
[1] = system: EKVX NSCLC
[2] = system: HOP-92 NSCLC
[3] = system: RPMI-8226 leukemia
[4] = system: SK-MEL-28 melanoma
[5] = system: IGROV1 ovarian
[6] = system: NCI-H23 lung
[7] = system: OVCAR-4 ovarian
[8] = system: SW-620 colon
[9] = system: UO-31 renal
[10] = system: SF-295 CNS
[11] = system: NCI/ADR-RES ovarian
[12] = system: SF-268 CNS
[13] = system: CCRF-CEM leukemia
[14] = system: NCI-H460 lung
[15] = system: SF-539 CNS
[16] = system: NCI-H226 lung
[17] = system: SK-MEL-2 melanoma
[18] = system: OVCAR-8 ovarian
[19] = system: HT29 colon
[20] = system: OVCAR-5 ovarian
[21] = system: MOLT-4 leukemia
[22] = system: CAKI-1 renal
[23] = system: SNB-19 CNS
[24] = system: BT-549 breast
[25] = system: RXF 393 renal
[26] = system: M14 melanoma
[27] = system: PC-3 prostate
[28] = system: KM12 colon
[29] = system: SK-OV-3 ovarian
[30] = system: COLO 205 colon
[31] = system: MCF7 breast
[32] = system: LOX IMVI melanoma
[33] = system: A549 NSCLC
[34] = system: U251 CNS
[35] = system: HL-60(TB) leukemia
[36] = system: K-562 leukemia
[37] = system: DU-145 prostate
[38] = system: HOP-62 NSCLC
[39] = system: OVCAR-3 ovarian
[40] = system: ACHN renal
[41] = system: HCC-2998 colon
[42] = system: TK-10 renal
[43] = system: A498 renal
[44] = system: UACC-62 melanoma
[45] = system: HCT-15 colon
[46] = system: MDA-MB-435
[47] = system: UACC-257 melanoma
[48] = system: NCI-H522 lung
[49] = system: SNB-75 CNS
[50] = system: HS 578T breast
[51] = system: MDA-MB-231 breast
[52] = system: MDA-N
[53] = system: HCT-116 colon
[54] = system: SN12C renal
[55] = system: T-47D breast
[56] = system: 786-0 renal
[57] = system: MALME-3M melanoma
[58] = system: SK-MEL-5 melanoma
[59] = system: SR leukemia

COC(OC)C1OC(CO)C(n2cc(F)c(=O)[nH]c2=O)C1O (stereo not drawn)
TGI [1]: > 100 µM
TGI [2]: > 100 µM
TGI [3]: > 100 µM
TGI [4]: > 100 µM
TGI [5]: > 100 µM
TGI [6]: > 100 µM
TGI [7]: > 100 µM
TGI [8]: > 100 µM
TGI [9]: > 100 µM
TGI [10]: > 100 µM
TGI [11]: > 100 µM
TGI [12]: > 100 µM
TGI [13]: > 100 µM
TGI [14]: > 100 µM
TGI [15]: > 100 µM
TGI [16]: > 100 µM
TGI [17]: > 100 µM
TGI [18]: > 100 µM
TGI [19]: > 100 µM
TGI [20]: > 100 µM
TGI [21]: > 100 µM
TGI [22]: > 100 µM
TGI [23]: > 100 µM
TGI [24]: > 100 µM
TGI [25]: > 100 µM
TGI [26]: > 100 µM
TGI [27]: > 100 µM
TGI [28]: > 100 µM
TGI [29]: > 100 µM
TGI [30]: 28.5 µM
TGI [31]: > 100 µM
TGI [32]: > 100 µM
TGI [33]: > 100 µM
TGI [34]: > 100 µM
TGI [35]: > 100 µM
TGI [36]: > 100 µM
TGI [37]: 64.4 µM
TGI [38]: > 100 µM
TGI [39]: > 100 µM
TGI [40]: > 100 µM
TGI [41]: > 100 µM
TGI [42]: > 100 µM
TGI [43]: > 100 µM
TGI [44]: > 100 µM
TGI [45]: > 100 µM
TGI [46]: > 100 µM
TGI [47]: > 100 µM
TGI [48]: > 100 µM
TGI [49]: > 100 µM
TGI [50]: > 100 µM
TGI [51]: > 100 µM
TGI [52]: > 100 µM
TGI [53]: > 100 µM
TGI [54]: > 100 µM
TGI [55]: > 100 µM

Cc1cc(=O)[nH]c(/N=C(\N)Nc2ccc(Cl)cc2)n1
TGI [1]: > 100 µM
TGI [2]: > 100 µM
TGI [3]: > 100 µM
TGI [4]: > 100 µM
TGI [5]: > 100 µM
TGI [6]: > 100 µM
TGI [8]: > 100 µM
TGI [9]: > 100 µM
TGI [10]: > 100 µM
TGI [11]: > 100 µM
TGI [12]: > 100 µM
TGI [56]: > 100 µM
TGI [13]: > 100 µM
TGI [14]: > 100 µM
TGI [16]: > 100 µM
TGI [17]: > 100 µM
TGI [18]: > 100 µM
TGI [19]: > 100 µM
TGI [20]: > 100 µM
TGI [57]: > 100 µM
TGI [21]: > 100 µM
TGI [22]: > 100 µM
TGI [23]: > 100 µM
TGI [24]: > 100 µM
TGI [25]: > 100 µM
TGI [26]: > 100 µM
TGI [27]: > 100 µM
TGI [28]: > 100 µM
TGI [58]: > 100 µM
TGI [32]: > 100 µM
TGI [33]: > 100 µM
TGI [34]: > 100 µM
TGI [35]: > 100 µM
TGI [36]: > 100 µM
TGI [37]: > 100 µM
TGI [38]: > 100 µM
TGI [39]: > 100 µM
TGI [40]: > 100 µM
TGI [41]: > 100 µM
TGI [59]: > 100 µM
TGI [42]: > 100 µM
TGI [43]: > 100 µM
TGI [44]: > 100 µM
TGI [45]: > 100 µM
TGI [46]: > 100 µM
TGI [47]: > 100 µM
TGI [48]: > 100 µM
TGI [50]: > 100 µM
TGI [51]: > 100 µM
TGI [52]: > 100 µM
TGI [53]: > 100 µM
TGI [54]: > 100 µM
TGI [55]: > 100 µM
